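At the GI50, growth is halved. Definition used: TGI = concentration required for complete inhibition of growth.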
Key:
Test in all cases: NCI-60 cell line screen, 384-well format
786-0 renal = test system: 786-0 renal
A498 renal = test system: A498 renal
A549 NSCLC = test system: A549 NSCLC
BT-549 breast = test system: BT-549 breast
DU-145 prostate = test system: DU-145 prostate
HL-60(TB) leukemia = test system: HL-60(TB) leukemia
HT29 colon = test system: HT29 colon
LOX IMVI melanoma = test system: LOX IMVI melanoma
OVCAR-3 ovarian = test system: OVCAR-3 ovarian
RXF 393 renal = test system: RXF 393 renal
SK-OV-3 ovarian = test system: SK-OV-3 ovarian
SNB-75 CNS = test system: SNB-75 CNS
UACC-257 melanoma = test system: UACC-257 melanoma

CC(C)(O)CNc1nc(Nc2ccnc(C(F)(F)F)c2)nc(-c2cccc(C(F)(F)F)n2)n1
GI50 (786-0 renal): 17.4 µM | TGI (786-0 renal): 37.6 µM | GI50 (A498 renal): 19.9 µM | TGI (A498 renal): 39.9 µM | GI50 (A549 NSCLC): 17.3 µM | TGI (A549 NSCLC): 35.4 µM | GI50 (BT-549 breast): 16 µM | TGI (BT-549 breast): 29.7 µM | GI50 (DU-145 prostate): 16.3 µM | TGI (DU-145 prostate): 31.6 µM | GI50 (HL-60(TB) leukemia): 14.9 µM | TGI (HL-60(TB) leukemia): 28.3 µM | GI50 (HT29 colon): 15.2 µM | TGI (HT29 colon): 29.6 µM | GI50 (LOX IMVI melanoma): 10.7 µM | TGI (LOX IMVI melanoma): 25.1 µM | GI50 (OVCAR-3 ovarian): 17.6 µM | TGI (OVCAR-3 ovarian): 32.9 µM | GI50 (RXF 393 renal): 12.3 µM | TGI (RXF 393 renal): 27.5 µM | GI50 (SK-OV-3 ovarian): 20.9 µM | TGI (SK-OV-3 ovarian): 40.9 µM | GI50 (SNB-75 CNS): 18.8 µM | TGI (SNB-75 CNS): 37.2 µM | GI50 (UACC-257 melanoma): 19.4 µM | TGI (UACC-257 melanoma): 33.8 µM

— PubChem BioAssay (NCI)
